Measurements taken from patent US9212163B2, “Pesticidal compositions and processes related thereto” (Dow AgroSciences LLC, priority 2012, dated 2015).

These molecules were tested on Beet Armyworm (BAW) (Spodoptera exigua) (assay: Bioassay on Beet Armyworm (BAW), 128-well diet tray assay). Conditions: Table 3: Assay Results Part 1.
Type: in vivo
Protocol: Certain molecules disclosed in this document were tested against BAW, CEW and CL using procedures described in the following examples. In the reporting of the results, the “BAW & CEW & CL Rating Table” was used (See Table Section).
Bioassays on BAW (Spodoptera exigua)
Bioassays on BAW were conducted using a 128-well diet tray assay. One to five second instar BAW larvae were placed in each well (3 mL) of the diet tray that had been previously filled with 1 mL of artificial diet to which 50 μg/cm^2 of the test compound (dissolved in 50 μL of 90:10 acetone-water mixture) had been applied (to each of eight wells) and then allowed to dry. Trays were covered with a clear self-adhesive cover, and held at 25° C., 14:10 light-dark for five to seven days. Percent mortality was recorded for the larvae in each well; activity in the eight wells was then averaged. The results are indicated in the tables entitled “Table 3: Assay Results Part 1” and “Table 4: Assay Results Part 2” (See Table Section).

Compound	BAW Rating
FC(F)(F)C(/C=C/c1ccc(-n2cncn2)c(Br)c1)c1cc(Cl)cc(Cl)c1 (centres unmarked) [DC47]	A (50-100)
CCNC(=S)NCc1ccc(/C=C/C(c2cc(Cl)c(Cl)c(Cl)c2)C(F)(F)F)cc1Cl (centres unmarked) [CC37, (E)-1-(2-Chloro-4-(4,4,4-trifluoro-3-(3,4,5-trichlorophenyl)but-1-en-1-yl)benzyl)-3-ethylthiourea]	A (50-100)
FC(F)(F)C(/C=C/c1ccc(-n2cncn2)cc1)c1ccccc1 (centres unmarked) [DC3]	B (More than 0-Less than 50)
CCOC(=O)c1cc(/C=C/C(c2cc(Cl)cc(Cl)c2)C(F)(F)F)ccc1-n1cncn1 (centres unmarked) [DC60]	A (50-100)
O=C(NCc1ccc(/C=C/C(c2cc(Cl)cc(Cl)c2)C(F)(F)F)cc1)C1CC1 (centres unmarked) [CC2]	A (50-100)
COc1c(Cl)cc(C(/C=C/c2ccc(-n3cncn3)cc2)C(F)(F)F)cc1Cl (centres unmarked) [DC20]	A (50-100)
CC(=O)NCc1ccc(/C=C/C(c2cc(Cl)cc(Cl)c2)C(F)(F)F)cc1Cl (centres unmarked) [CC7, (E)-N-(2-Chloro-4-(3-(3,5-dichlorophenyl)-4,4,4-trifluorobut-1-en-1-yl)benzyl)acetamide]	A (50-100)
Cc1cc(/C=C/C(c2cc(Cl)c(F)c(Cl)c2)C(F)(F)F)ccc1C(=O)NCc1ccnc(Cl)c1 (centres unmarked) [AC54]	A (50-100)
O=C(NC1CCN(C2COC2)CC1)c1ccc(/C=C/C(c2cc(Cl)c(Cl)c(Cl)c2)C(F)(F)F)cc1Br (centres unmarked) [AC108, (E)-2-Bromo-N-(1-(oxetan-3-yl)piperidin-4-yl)-4-(4,4,4-trifluoro-3-(3,4,5-trichlorophenyl)but-1-en-1-yl)benzamide]	B (More than 0-Less than 50)
CC(C)(C)OC(=O)CNC(=O)c1ccc(/C=C/C(c2cc(Cl)c(Cl)c(Cl)c2)C(F)(F)F)cc1Br (centres unmarked) [AC58]	A (50-100)
O=C(NCc1ccc(/C=C/C(c2cc(Cl)c(Cl)c(Cl)c2)C(F)(F)F)cc1F)C1CC1 (centres unmarked) [CC28]	A (50-100)
Cc1cc(/C=C/C(c2cc(Cl)cc(Cl)c2)C(F)(F)F)cc(C#N)c1-n1cncn1 (centres unmarked) [DC44]	A (50-100)
O=C(NCc1ccc(/C=C/C(c2cc(Cl)c(F)c(Cl)c2)C(F)(F)F)cc1Cl)C1CC1 (centres unmarked) [CC15]	A (50-100)
O=C(CC(F)(F)F)NCc1ncc(/C=C/C(c2cc(Cl)c(Cl)c(Cl)c2)C(F)(F)F)cc1Cl (centres unmarked) [CC44, (E)-N-((3-Chloro-5-(4,4,4-trifluoro-3-(3,4,5-trichlorophenyl)-but-1-en-1-yl)pyridin-2-yl)methyl)-3,3,3-trifluoropropanamide]	A (50-100)
Cc1cc(/C=C/C(c2cc(Cl)cc(Cl)c2)C(F)(F)F)ccc1C(=O)NCc1ccoc1 (centres unmarked) [AC20]	A (50-100)
Cc1cc(/C=C/C(c2cc(Cl)c(Cl)c(Cl)c2)C(F)(F)F)ccc1C(=O)NC1CSC1 (centres unmarked) [AC23]	A (50-100)
O=C(CC(F)(F)F)NCc1ccc(/C=C/C(c2cc(Cl)c(Cl)c(Cl)c2)C(F)(F)F)cc1F (centres unmarked) [CC27]	A (50-100)
Cc1cc(/C=C/C(c2cc(Cl)cc(Cl)c2)C(F)(F)F)ccc1C(=O)NCc1ccccn1 (centres unmarked) [AC12]	A (50-100)
N#Cc1cc(/C=C/C(c2cc(Cl)cc(C(F)(F)F)c2)C(F)(F)F)ccc1-n1cncn1 (centres unmarked) [DC33]	A (50-100)

Compound	BAW Rating
O=C(NCC(=S)NCC(F)(F)F)c1ccc(/C=C/C(c2cc(Cl)c(Cl)c(Cl)c2)C(F)(F)F)cc1Br (centres unmarked) [AC92, (E)-2-Bromo-N-(2-thioxo-2-((2,2,2-trifluoroethyl)amino)ethyl)-4-(4,4,4-trifluoro-3-(3,4,5-trichlorophenyl)but-1-en-1-yl)benzamide]	A (50-100)
O=C(NC1CS(=O)(=O)C1)c1ccc(/C=C/C(c2cc(Cl)c(Cl)c(Cl)c2)C(F)(F)F)cc1Br (centres unmarked) [AC33]	A (50-100)
Cc1cc(/C=C/C(c2cc(Cl)c(Cl)c(Cl)c2)C(F)(F)F)ccc1C(=O)NC(C)(C)c1ccccn1 (centres unmarked) [AC27]	A (50-100)
O=C(CC(F)(F)F)NCc1ccc(/C=C/C(c2cc(Cl)c(Cl)c(Cl)c2)C(F)(F)F)cc1Br (centres unmarked) [CC25]	A (50-100)
FC(F)(F)C(/C=C/c1ccc(-n2cncn2)c(Cl)c1)c1cc(Cl)c(Cl)c(Cl)c1 (centres unmarked) [DC49]	A (50-100)
CC(=O)Nc1ncn(-c2ccc(/C=C/C(c3cc(Cl)cc(Cl)c3)C(F)(F)F)cc2C#N)n1 (centres unmarked) [DC39]	A (50-100)
CONC(=O)CNC(=O)c1ccc(/C=C/C(c2cc(Cl)c(Cl)c(Cl)c2)C(F)(F)F)cc1Br (centres unmarked) [AC110]	A (50-100)
O=C(CC(F)(F)F)NCc1ccc(/C=C/C(c2cc(Cl)cc(Cl)c2)C(F)(F)F)cc1 (centres unmarked) [CC3]	A (50-100)
O=C(CC(F)(F)F)NC1CCCc2cc(/C=C/C(c3cc(Cl)c(Cl)c(Cl)c3)C(F)(F)F)ccc21 (centres unmarked) [BC5]	A (50-100)
C=CCNC(=O)CNC(=O)c1ccc(/C=C/C(c2cc(Cl)c(Cl)c(Cl)c2)C(F)(F)F)cc1Br (centres unmarked) [AC111]	A (50-100)
CC(=O)N1CCC(NC(=O)c2ccc(/C=C/C(c3cc(Cl)c(Cl)c(Cl)c3)C(F)(F)F)cc2Br)CC1 (centres unmarked) [AC103, (E)-N-(1-Acetylpiperidin-4-yl)-2-bromo-4-(4,4,4-trifluoro-3-(3,4,5-trichlorophenyl)but-1-en-1-yl)benzamide]	A (50-100)
FC(F)(F)C(/C=C/c1ccc(-n2cncn2)cc1Cl)c1cc(Cl)cc(Cl)c1 (centres unmarked) [DC67]	A (50-100)
Cc1cc(/C=C/C(c2cc(Cl)cc(Cl)c2)C(F)(F)F)ccc1C(=O)NCc1ncccn1 (centres unmarked) [AC18]	A (50-100)
N#Cc1cc(/C=C/C(c2cc(Cl)c(Cl)c(Cl)c2)C(F)(F)F)ccc1-n1cnc(NC(=O)C2CC2)n1 (centres unmarked) [DC43, (E)-N-(1-(2-Cyano-4-(4,4,4-trifluoro-3-(3,4,5-trichlorophenyl)but-1-en-1-yl)phenyl)-1H-1,2,4-triazol-3-yl)cyclopropanecarboxamide]	A (50-100)
O=C(NC1CSC1)c1ccc(/C=C/C(c2cc(Cl)cc(Cl)c2)C(F)(F)F)cc1F (centres unmarked) [AC61]	A (50-100)
Fc1c(Cl)cc(C(/C=C/c2ccc3c(c2)CCC3NCCC(F)(F)F)C(F)(F)F)cc1Cl (centres unmarked) [BC10, (E)-5-(3-(3,5-Dichloro-4-fluorophenyl)-4,4,4-trifluorobut-1-en-1-yl)-N-(3,3,3-trifluoropropyl)-2,3-dihydro-1H-inden-1-amine]	A (50-100)
COc1cc(/C=C/C(c2cc(Cl)c(F)c(Cl)c2)C(F)(F)F)ccc1C(=O)NC1CS(=O)(=O)C1 (centres unmarked) [AC85]	A (50-100)
O=C(NC1CSC1)c1ccc(/C=C/C(c2cc(Cl)c(Cl)c(Cl)c2)C(F)(F)F)cc1Br (centres unmarked) [AC32]	A (50-100)
Cc1cc(/C=C/C(c2cc(Cl)c(F)c(Cl)c2)C(F)(F)F)ccc1C(=O)NC1CCOCC1 (centres unmarked) [AC52]	A (50-100)

Compound	BAW Rating
COc1c(Cl)cc(C(/C=C/c2ccc(-n3cncn3)c(C#N)c2)C(F)(F)F)cc1Cl (centres unmarked) [DC34]	A (50-100)
Cc1cc(/C=C\C(c2cc(Cl)cc(Cl)c2)C(F)(F)F)ccc1C(=O)NCC(=O)NC1CC1 (centres unmarked) [AC93]	A (50-100)
Cc1cc(/C=C/C(c2cc(Cl)cc(Cl)c2)C(F)(F)F)ccc1C(=O)NCC1CCCO1 (centres unmarked) [AC118]	A (50-100)
Cc1cc(/C=C/C(c2cc(Cl)cc(Cl)c2)C(F)(F)F)ccc1C(=O)NCc1ccc(Cl)nc1 (centres unmarked) [AC7]	A (50-100)
N#Cc1cc(/C=C/C(c2cc(Cl)c(F)c(Cl)c2)C(F)(F)F)ccc1-n1cncn1 (centres unmarked) [DC35]	A (50-100)
O=C(NCc1ccc(/C=C/C(c2cc(Cl)c(Cl)c(Cl)c2)C(F)(F)F)cc1Cl)C1CC1 (centres unmarked) [CC11]	A (50-100)
O=C(CC(F)(F)F)NC1CCc2cc(/C=C/C(c3cc(Cl)c(F)c(Cl)c3)C(F)(F)F)ccc21 (centres unmarked) [BC8]	A (50-100)
CNc1cc(/C=C/C(c2cc(Cl)cc(Cl)c2)C(F)(F)F)ccc1-n1cncn1 (centres unmarked) [DC57, (E)-5-(3-(3,5-Dichlorophenyl)-4,4,4-trifluorobut-1-en-1-yl)-N-methyl-2-(1H-1,2,4-triazol-1-yl)aniline]	A (50-100)
O=C(CC(F)(F)F)NCC(=O)n1ccc2cc(/C=C/C(c3cc(Cl)c(F)c(Cl)c3)C(F)(F)F)ccc21 (centres unmarked) [BC13, (E)-N-(2-(5-(3-(3,5-Dichloro-4-fluorophenyl)-4,4,4-trifluorobut-1-en-1-yl)-1H-indol-1-yl)-2-oxoethyl)-3,3,3-trifluoropropanamide]	A (50-100)
Cc1cc(/C=C/C(c2cc(Cl)cc(Cl)c2)C(F)(F)F)ccc1C(=O)NN(C)c1ccccc1F (centres unmarked) [AC45]	A (50-100)
O=C(NCc1ccc(Cl)nc1)c1ccc(/C=C/C(c2cc(Cl)cc(Cl)c2)C(F)(F)F)cc1F (centres unmarked) [AC49]	A (50-100)
Cc1cc(/C=C/C(c2cc(Cl)cc(Cl)c2)C(F)(F)F)ccc1C(=O)NCc1nccn1C (centres unmarked) [AC50]	A (50-100)
CCNC(=O)NCc1ccc(/C=C/C(c2cc(Cl)c(Cl)c(Cl)c2)C(F)(F)F)cc1C(F)(F)F (centres unmarked) [CC32]	A (50-100)
Cc1cc(/C=C/C(c2cc(Cl)cc(Cl)c2)C(F)(F)F)ccc1C(=O)NCc1ccccc1 (centres unmarked) [AC11]	A (50-100)
O=C(Cc1ccc(Cl)nc1)NC1CCc2cc(/C=C/C(c3cc(Cl)c(F)c(Cl)c3)C(F)(F)F)ccc21 (centres unmarked) [BC9]	A (50-100)
CCNC(=O)NCc1ccc(/C=C/C(c2cc(Cl)cc(Cl)c2)C(F)(F)F)cc1Cl (centres unmarked) [CC31, (E)-1-(2-Chloro-4-(3-(3,5-dichlorophenyl)-4,4,4-trifluorobut-1-en-1-yl)benzyl)-3-ethylurea]	B (More than 0-Less than 50)
O=C(NC1CS(=O)(=O)C1)c1ccc(/C=C/C(c2cc(Cl)c(Cl)c(Cl)c2)C(F)(F)F)cc1C(F)(F)F (centres unmarked) [AC35]	A (50-100)
O=C(NCc1ccc(Cl)nc1)c1ccc(/C=C/C(c2cc(Cl)c(F)c(Cl)c2)C(F)(F)F)cc1F (centres unmarked) [AC65]	A (50-100)
